Values of other authors as cited in article PMC8278929 (Chemical Science, 2021).

Legend:
[1] = free, uncoordinated alcohol, no reference given
[2] = analogue of 11
[3] = in PBS, Os/pyr/for 1:200:400

## OCCCc1ccccc1 [3-phenyl-1-propanol]
[1]
  estimated pKa: ca. 16

## [Os(η^6-C6H5C6H5)(4-Me-pico)Cl]^+
[2]
  ΔS^‡ (entropy of hydrolysis): −55.6 ± 1.6 J K^−1 mol^−1

## [Os(η^6-p-cymene)(TsDPEN)]
[3]
  TOFmax: 1.5 h⁻¹
